Broadly, the IC50 is the point on the concentration scale where inhibition reaches its midpoint.

Where a name gives a salt, the structure may show the parent alone. The source made the active and inactive calls. No cut-off for these calls is given here.

Data set [1] concerns K562. The data set is described as follows: Antiproliferative activity against human K562 cells assessed as inhibition of cell growth. It counts as functional, cell-based.
The subject of data set [2] is MDA-MB-231. The data set is described as follows: Antiproliferative activity against human MDA-MB-231 cells assessed as inhibition of cell growth. It counts as functional, cell-based.
Data set [3] concerns A549. The data set is described as follows: Antiproliferative activity against human A549 cells assessed as inhibition of cell growth. Format: functional, cell-based.
Data set [4] deals with HeLa. The data set is described as follows: Antiproliferative activity against human HeLa cells assessed as inhibition of cell growth. Format: functional, cell-based.
The test system of data set [5] is K562. The data set is described as follows: Induction of cell cycle arrest in human K562 cells assessed as accumulation of cells at G2 phase at 10 uM by flow cytometry analysis (reference value: 5.38%). Format: functional. (A flow cytometer gives signals particle by particle.)
Data set [6] concerns K562. The data set is described as follows: Induction of apoptosis in human K562 cells assessed as increase in Bax/Bcl-2 ratio at 100 uM measured after 48 hrs by human apoptosis array analysis. Format: functional, cell-based.
Data set [7] deals with K562. The data set is described as follows: Induction of apoptosis in human K562 cells assessed as increase in pro-caspase 3 level at 100 uM measured after 48 hrs by human apoptosis array analysis. It counts as functional, cell-based.
The subject of data set [8] is K562. The data set is described as follows: Induction of apoptosis in human K562 cells assessed as viable cells at 10 uM by AnnexinV-FITC/propidium iodide staining based flow cytometric analysis (reference value: 86.4%). Format: functional. To be noted: read-out: Activity.
Data set [9] relates to K562. The data set is described as follows: Induction of apoptosis in human K562 cells assessed as early apoptotic cells at 10 uM by AnnexinV-FITC/propidium iodide staining based flow cytometric analysis (reference value: 2.56%). It counts as functional.
The subject of data set [10] is K562. The data set is described as follows: Induction of apoptosis in human K562 cells assessed as increase in FADD level at 100 uM measured after 48 hrs by human apoptosis array analysis. Format: functional, cell-based.
The subject of data set [11] is K562. The data set is described as follows: Induction of apoptosis in human K562 cells assessed as increase in SMAC/Diablo level at 100 uM measured after 48 hrs by human apoptosis array analysis. It counts as functional, cell-based.
Data set [12] has as its system K562. The data set is described as follows: Induction of apoptosis in human K562 cells assessed as increase in HTRA2/omi level at 100 uM measured after 48 hrs by human apoptosis array analysis. It counts as functional, cell-based.
For data set [13], the system named is K562. The data set is described as follows: Induction of cell cycle arrest in human K562 cells assessed as accumulation of cells at G1 phase at 10 uM by flow cytometry analysis (reference value: 73.3%). It counts as functional.
Data set [14] deals with K562. The data set is described as follows: Induction of apoptosis in human K562 cells assessed as increase in cleaved caspase-3 level at 100 uM measured after 48 hrs by human apoptosis array analysis. Format: functional, cell-based.
Data set [15] can be described thus: Cytotoxicity against human L02 cells assessed as cell viability at 2 ug/ml relative to control. Format: toxicity, cell-based. The note with it: at 2 µg/mL, read-out: Activity.
The subject of data set [16] is K562. The data set is described as follows: Induction of apoptosis in human K562 cells assessed as late apoptotic cells at 10 uM by AnnexinV-FITC/propidium iodide staining based flow cytometric analysis (reference value: 5.1%). Format: functional.
The test system of data set [17] is K562. The data set is described as follows: Induction of apoptosis in human K562 cells assessed as dead cells at 10 uM by AnnexinV-FITC/propidium iodide staining based flow cytometric analysis (reference value: 5.94%). It counts as functional.
The subject of data set [18] is K562. The data set is described as follows: Induction of cell cycle arrest in human K562 cells assessed as accumulation of cells at S phase at 10 uM by flow cytometry analysis (reference value: 21.32%). Format: functional.

In the case of `O=C1C=CC(OCC(F)(F)F)N1c1ccc([N+](=O)[O-])cc1` (stereo unspecified), the IC50 in data set [1] came out at 1.53 µM; in [2] it was 2.83 µM; in data set [3], 3.27 µM; in data set [4] it was 2.38 µM.
Consider `O=C1c2c(O)ccc(O)c2C(=O)c2c(NCCNCCO)ccc(NCCNCCO)c21` [MITOXANTRONE], for which the values for the IC50 in data set [1], in data set [3] and in data set [4] were 0.14 µM, 0.07 µM and 0.04 µM, respectively.
For the compound `O=C1C=CC(OCC(F)(F)F)N1c1ccc(Cl)cc1F` (stereo unspecified), the IC50 worked out at 6.21 µM in data set [1], 6.1 µM in [2], 6.63 µM in data set [3] and 8.32 µM in [4].
Regarding `CC(C)(C)c1ccc(N2C(=O)C=CC2OCC(F)(F)F)cc1` (stereo unspecified), the Activity in data set [5] is recorded as 80.18%; in [9], 33.3%; in [13], 18.84%; in [16], 22.8%; in [17] it was 2.4%; in data set [18] it was 0.98%. The outcome in [6], in data set [7], in [10], in [11], in data set [12] and in data set [14] was Active. For the same compound, the IC50 in [1] stood at 0.07 µM; in data set [2], 1.86 µM; in data set [3], 8.5 µM; in [4] it was 18.1 µM. Besides, in data set [8], the viability at 10 µM came out at 41.5%. Moreover, the viability at 2 ug/ml in [15] is 81%.
Consider `O=C1C=CC(OCC(F)(F)F)N1c1ccccc1` (stereo unspecified), for which the IC50 in data set [1] is 24.6 µM; in data set [2] it was 15.3 µM; in data set [3], 23.4 µM; in [4] it was greater than 100 µM.
Regarding `O=C1C=CC(OCC(F)(F)F)N1c1ccc(F)c(Cl)c1` (stereo unspecified), the half-inhibitory concentration (IC50) in data set [1] worked out at 6.32 µM; in data set [2], 3.44 µM; in data set [3], 7.69 µM; in [4] it was 3.11 µM. Also, the viability at 2 ug/ml in data set [15] amounted to 58%.
`COc1ccc(/C=C\c2cc(OC)c(OC)c(OC)c2)cc1O` [COMBRETASTATIN A4]: the Activity in [5] came out at 47.61%; in data set [9], 43.7%; in data set [13], 21.92%; in data set [16] it was 22.2%; in data set [17], 1.36%; in data set [18], 30.46%. Further, the viability at 10 µM in [8] was 32.7%.
Turning to `Cc1ccc(N2C(=O)C=CC2OCC(F)(F)F)cc1` (stereo unspecified), the IC50 in data set [1] stood at 7.14 µM; in data set [2], 15.8 µM; in [3], 13.7 µM; in data set [4], 9.38 µM.
As to `O=C1C=CC(OCC(F)(F)F)N1c1ccc(C(F)(F)F)cc1` (stereo unspecified), the IC50 in data set [1] is 13.1 µM; in data set [2] it was 2.3 µM; in data set [3] it was 8.39 µM; in data set [4], 36.2 µM.
As for `CC(C)c1ccc(N2C(=O)C=CC2OCC(F)(F)F)cc1` (stereo unspecified), the IC50 came to 6.62 µM in data set [1], 6.64 µM in [2], 9.57 µM in [3] and 5.8 µM in data set [4].
The matching figures for `O=C1C=CC(OCC(F)(F)F)N1c1ccccc1F` (stereo unspecified): 12 µM, 20.6 µM, 44.9 µM and 19.2 µM.
With `O=C1C=CC(OCC(F)(F)F)N1c1ccc(Br)cc1` (stereo unspecified), the IC50 in [1] stood at 3.27 µM; in [2], 7.57 µM; in data set [3], 6.96 µM; in [4] it was 7.06 µM.
Turning to `O=C1C=CC(OC(C(F)(F)F)C(F)(F)F)N1c1ccc(Cl)cc1` (stereo unspecified), the IC50 in data set [1] was determined as 4.48 µM; in data set [2], 2.41 µM; in [3], 4.3 µM; in data set [4] it was 1.89 µM.
`CCc1ccc(N2C(=O)C=CC2OCC(F)(F)F)cc1` (stereo unspecified): the IC50 is 4.47 µM in data set [1], 7.84 µM in data set [2], 8.09 µM in data set [3] and 6.51 µM in [4].
For `COc1cccc2c1C(=O)c1c(O)c3c(c(O)c1C2=O)C[C@@](O)(C(=O)CO)C[C@@H]3O[C@H]1C[C@H](N)[C@H](O)[C@H](C)O1` [DOXORUBICIN HYDROCHLORIDE], the IC50 in data set [1] came to 0.34 µM; in data set [3] it was 0.15 µM; in data set [4], 1.07 µM.
On to `COC(=O)c1ccc(N2C(=O)C=CC2OCC(F)(F)F)cc1` (stereo unspecified), for which the IC50 in data set [1] is 14.7 µM; in [2] it was 12.1 µM; in data set [3], 8.17 µM; in data set [4], 5.7 µM.
The matching figures for `O=C1C=CC(OCC(F)(F)F)N1c1cc(Cl)cc(Cl)c1` (stereo unspecified): 1.64 µM, 2.43 µM, 1.63 µM and 5.92 µM.
With `CC(C)NC1CC(=O)N(c2ccc(F)c(Cl)c2)C1OCC(F)(F)F` (stereo unspecified), the IC50 in data set [1] is 10.5 µM; in data set [2] it was greater than 100 µM; in data set [3], greater than 100 µM; in data set [4], 6.61 µM. Besides, the viability at 2 ug/ml in data set [15] is 102%.
For the compound `O=C1C=CC(OCC(F)(F)F)N1c1cc(F)cc(F)c1` (stereo unspecified), the Activity in [5] is given as 54.21%; in [9], 25.5%; in data set [13], 15.21%; in [16], 22.3%; in data set [17] it was 2.26%; in data set [18], 30.58%. In addition, the IC50 in [1] turned out to be 0.52 µM; in data set [2], 7.84 µM; in data set [3], 5 µM; in [4], 8.46 µM. For the same compound, in data set [8], the viability at 10 µM amounted to 50%. Also, the viability at 2 ug/ml in data set [15] is 66%.

The record behind these values is ChEMBL document CHEMBL5104159, “Synthesis and antitumor activity of a series of novel N-aryl-5-(2,2,2-trifluoroethoxy)-1,5-dihydro-2H-pyrrol-2-ones derivatives” (Bioorg Med Chem Lett, 2022).
